In assay [1] the target is T1, αβγ-hENaC (Homo sapiens, UniProt P37088+P51168+P51170).
T1 construct: expressed in transfected cells; host or cells: HEK-293
T1 sequence (P37088 1-669): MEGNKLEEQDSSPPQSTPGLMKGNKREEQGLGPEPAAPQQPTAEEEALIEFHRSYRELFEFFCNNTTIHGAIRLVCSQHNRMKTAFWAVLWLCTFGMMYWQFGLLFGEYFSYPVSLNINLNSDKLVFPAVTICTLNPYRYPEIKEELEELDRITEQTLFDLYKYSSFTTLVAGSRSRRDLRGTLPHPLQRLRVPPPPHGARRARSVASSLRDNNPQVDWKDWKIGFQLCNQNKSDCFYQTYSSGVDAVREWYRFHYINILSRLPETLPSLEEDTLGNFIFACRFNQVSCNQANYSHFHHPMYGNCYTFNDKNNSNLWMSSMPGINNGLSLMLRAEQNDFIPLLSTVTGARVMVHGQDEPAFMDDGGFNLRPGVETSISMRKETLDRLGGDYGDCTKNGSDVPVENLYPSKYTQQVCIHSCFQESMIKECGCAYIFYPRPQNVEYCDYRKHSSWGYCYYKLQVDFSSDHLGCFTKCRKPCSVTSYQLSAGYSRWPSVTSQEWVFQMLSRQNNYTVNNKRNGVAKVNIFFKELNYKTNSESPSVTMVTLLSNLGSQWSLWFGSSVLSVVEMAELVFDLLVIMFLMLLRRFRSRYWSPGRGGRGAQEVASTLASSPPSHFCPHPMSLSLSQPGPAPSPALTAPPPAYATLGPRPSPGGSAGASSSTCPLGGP
T1 sequence (P51168 1-640 partner): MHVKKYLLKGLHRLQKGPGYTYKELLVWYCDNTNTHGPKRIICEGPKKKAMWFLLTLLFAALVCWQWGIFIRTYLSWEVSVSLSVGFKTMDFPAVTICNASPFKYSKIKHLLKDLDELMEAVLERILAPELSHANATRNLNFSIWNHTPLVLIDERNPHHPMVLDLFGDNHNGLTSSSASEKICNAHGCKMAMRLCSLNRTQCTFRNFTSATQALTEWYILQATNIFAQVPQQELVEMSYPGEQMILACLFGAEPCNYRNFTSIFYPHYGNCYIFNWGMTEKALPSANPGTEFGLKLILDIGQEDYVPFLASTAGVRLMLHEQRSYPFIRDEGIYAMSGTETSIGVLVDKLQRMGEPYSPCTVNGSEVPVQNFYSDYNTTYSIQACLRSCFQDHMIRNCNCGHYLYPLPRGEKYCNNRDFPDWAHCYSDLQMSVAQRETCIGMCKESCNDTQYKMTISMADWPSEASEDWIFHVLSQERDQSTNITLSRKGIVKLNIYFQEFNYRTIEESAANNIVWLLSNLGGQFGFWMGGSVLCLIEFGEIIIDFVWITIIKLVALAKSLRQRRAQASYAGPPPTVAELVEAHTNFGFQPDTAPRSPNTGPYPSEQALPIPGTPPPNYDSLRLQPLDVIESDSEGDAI
T1 sequence (P51170 1-649 partner): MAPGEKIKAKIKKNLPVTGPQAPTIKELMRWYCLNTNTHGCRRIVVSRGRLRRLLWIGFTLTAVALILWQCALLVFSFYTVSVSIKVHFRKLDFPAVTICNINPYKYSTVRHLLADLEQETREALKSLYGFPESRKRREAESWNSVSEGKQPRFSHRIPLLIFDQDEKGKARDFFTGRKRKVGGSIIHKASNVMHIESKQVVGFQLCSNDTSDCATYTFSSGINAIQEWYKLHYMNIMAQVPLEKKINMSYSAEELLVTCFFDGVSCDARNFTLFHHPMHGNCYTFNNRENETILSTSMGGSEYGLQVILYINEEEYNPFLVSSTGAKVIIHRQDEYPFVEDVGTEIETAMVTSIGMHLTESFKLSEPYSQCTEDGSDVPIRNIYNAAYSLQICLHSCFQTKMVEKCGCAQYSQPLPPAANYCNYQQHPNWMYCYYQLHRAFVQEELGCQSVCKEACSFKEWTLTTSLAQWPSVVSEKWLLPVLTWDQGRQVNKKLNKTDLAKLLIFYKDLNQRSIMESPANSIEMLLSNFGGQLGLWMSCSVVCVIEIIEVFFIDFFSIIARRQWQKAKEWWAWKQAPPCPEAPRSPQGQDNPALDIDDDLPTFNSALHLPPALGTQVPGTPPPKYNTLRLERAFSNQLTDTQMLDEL
In words: Whole-cell patch clamp, WT αβγ-hENaC. Type of assay: cell-based. As to conditions: exposure time, WT αβγ-ENaC (Figure 1). The procedure: Point mutations of α-, β-, γ- and δ-hENaC and PHA1B frameshift mutations of α-hENaC were prepared with the QuikChange Lightning Site-Directed Mutagenesis Kit (Agilent Technologies, CA, USA). Mutagenic primers were designed individually with the Primer Design Program provided on the producer’s website or for the frameshift mutations the same base changes as reported in patients (see Table 2) were performed. Primers were ordered from Sigma-Aldrich, Vienna, Austria.
HEK-293 cells were transfected 1 day after cell seeding using X-tremeGENE HP DNA transfection reagent (Roche Diagnostics, Mannheim, Germany) according to the manufacturer’s protocol. A set of WT or mutant αβγ- or δβγ-hENaC, or α-, β-, γ-, or δ-hENaC alone was used, and the ratio of DNA to transfection reagent was 1:3. The expression was highest 48–72 h after transfection.
Electrophysiological experiments were performed as described in detail by Shabbir et al. ([16]). […] Currents were recorded with the patch clamp method in the whole-cell mode. The chamber contained 1 ml of the bath solution of the following composition (in mM): 145 NaCl, 2.7 KCl, 1.8 CaCl2, 2 MgCl2, 5.5 glucose, and 10 HEPES, adjusted to pH 7.4 with 1 M NaOH solution. Micropipettes were pulled from thin-walled borosilicate glass capillaries (Harvard Apparatus, Holliston, MA, USA) with a DMZ Zeitz Puller to obtain electrode resistances ranging from 2 to 5 MΩ. The pipette solution contained (in millimolars): 135 potassium methane sulfonate, 10 KCl, 6 NaCl, 1 Mg2ATP, 2 Na3ATP, 10 HEPES, and 0.5 EGTA, adjusted to pH 7.2 with 1 M KOH solution. Chemicals for pipette and bathing solutions were supplied by Sigma-Aldrich (Vienna, Austria). Electrophysiological measurements were carried out with an Axopatch 200B patch clamp amplifier (Axon Instruments, CA, USA). Capacity transients were canceled, and series resistance was compensated. Whole-cell currents were filtered at 5 kHz and sampled at 10 kHz. Data acquisition and storage were processed directly to a PC equipped with pCLAMP 10.2 software (Axon Instruments, CA, USA). […]

Assay [2] has as its system αL576Xβγ-ENaC. As to conditions: cited from earlier work.
Assay [3] relates to β-ENaC. As to conditions: HEK-293, 5 and 10 min; cited from earlier work.

Molecules are shown by their SMILES.

In the case of `C[C@@H]1NC(=O)CNC(=O)[C@H](CCC(=O)O)NC(=O)[C@@H]2CCCN2C(=O)[C@H]([C@@H](C)O)NC(=O)[C@H](CCC(=O)O)NC(=O)[C@H](CCCNC(=N)N)NC(=O)[C@H](CCC(N)=O)NC(=O)CNC(=O)[C@@H](N)CSSC[C@@H](C(=O)O)NC(=O)[C@H](Cc2ccc(O)cc2)NC(=O)[C@H](Cc2c[nH]c3ccccc23)NC(=O)[C@@H]2CCCN2C(=O)[C@H](CCCCN)NC(=O)[C@H](C)NC(=O)[C@H](CCC(=O)O)NC1=O` [solnatide, L-cysteine, L-cysteinylglycyl-L-glutaminyl-L-arginyl-L-α-glutamyl-L-threonyl-L-prolyl-L-α-glutamylglycyl-L-alanyl-L-α-glutamyl-L-alanyl-L-lysyl-L-prolyl-L-tryptophyl-L-tyrosyl-, cyclic (1→17)-disulfide], in assay [1], the “Time to maximal stimulatory effect” value was ~ 2 min. The “Effect of solnatide on amiloride-sensitive current” value in assay [2] was “a residual albeit non-significant increase in the amiloride-sensitive current”. Besides, the “Current increase, glycosylation sites removed” value in assay [2] (glycosylation sites in extracellular loop removed by mutation) is listed as “small increase was not seen”. Also, the “Membrane abundance, solnatide” value in assay [3] is given as “only slight”.

These data come from article PMC5447021, “TNF Lectin-Like Domain Restores Epithelial Sodium Channel Function in Frameshift Mutants Associated with Pseudohypoaldosteronism Type 1B” (Frontiers in Immunology, 2017).
